Test results: PubChem BioAssay (NCI)
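Five compound concentrations were applied to cells in 96-well plates for 48 hours; endpoints were derived by simple linear interpolation of the resulting dose-response curve. TGI: concentration producing complete growth inhibition.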

Legend:
Assay in all cases: NCI-60 cell line screen, 48 h
[1] = test system: 786-0 renal
[2] = test system: A498 renal
[3] = test system: A549 NSCLC
[4] = test system: ACHN renal
[5] = test system: CAKI-1 renal
[6] = test system: CCRF-CEM leukemia
[7] = test system: COLO 205 colon
[8] = test system: DLD-1 colon
[9] = test system: DMS 114 small cell lung
[10] = test system: DMS 273 small cell lung
[11] = test system: EKVX NSCLC
[12] = test system: HCC-2998 colon
[13] = test system: HCT-116 colon
[14] = test system: HCT-15 colon
[15] = test system: HL-60(TB) leukemia
[16] = test system: HOP-18 NSCLC
[17] = test system: HOP-62 NSCLC
[18] = test system: HOP-92 NSCLC
[19] = test system: HT29 colon
[20] = test system: IGROV1 ovarian
[21] = test system: K-562 leukemia
[22] = test system: KM12 colon
[23] = test system: KM20L2 colon
[24] = test system: LOX IMVI melanoma
[25] = test system: LXFL 529 NSCLC
[26] = test system: M14 melanoma
[27] = test system: M19-MEL melanoma
[28] = test system: MALME-3M melanoma
[29] = test system: MOLT-4 leukemia
[30] = test system: NCI-H226 lung
[31] = test system: NCI-H23 lung
[32] = test system: NCI-H460 lung
[33] = test system: NCI-H522 lung
[34] = test system: OVCAR-3 ovarian
[35] = test system: OVCAR-4 ovarian
[36] = test system: OVCAR-5 ovarian
[37] = test system: OVCAR-8 ovarian
[38] = test system: RPMI-8226 leukemia
[39] = test system: RXF 393 renal
[40] = test system: RXF-631 renal
[41] = test system: SF-268 CNS
[42] = test system: SF-295 CNS
[43] = test system: SF-539 CNS
[44] = test system: SK-MEL-2 melanoma
[45] = test system: SK-MEL-28 melanoma
[46] = test system: SK-MEL-5 melanoma
[47] = test system: SK-OV-3 ovarian
[48] = test system: SN12C renal
[49] = test system: SNB-19 CNS
[50] = test system: SNB-75 CNS
[51] = test system: SNB-78 CNS
[52] = test system: SR leukemia
[53] = test system: SW-620 colon
[54] = test system: TK-10 renal
[55] = test system: U251 CNS
[56] = test system: UACC-257 melanoma
[57] = test system: UACC-62 melanoma
[58] = test system: UO-31 renal
[59] = test system: XF 498 CNS

SMILES: COc1cc2c(cc1OC)C1[C@@H](c3ccccc3)OCN1CC2 (stereo partly drawn)
- TGI [1]: > 100 µM
- TGI [2]: > 100 µM
- TGI [3]: > 100 µM
- TGI [4]: > 100 µM
- TGI [5]: > 100 µM
- TGI [6]: > 100 µM
- TGI [7]: > 100 µM
- TGI [8]: > 100 µM
- TGI [9]: > 100 µM
- TGI [10]: > 100 µM
- TGI [11]: > 100 µM
- TGI [12]: > 100 µM
- TGI [13]: > 100 µM
- TGI [14]: > 100 µM
- TGI [15]: > 89.8 µM
- TGI [16]: > 100 µM
- TGI [17]: > 100 µM
- TGI [18]: > 100 µM
- TGI [19]: > 100 µM
- TGI [20]: > 100 µM
- TGI [21]: > 63.1 µM
- TGI [22]: > 100 µM
- TGI [23]: > 100 µM
- TGI [24]: > 100 µM
- TGI [25]: > 100 µM
- TGI [26]: > 100 µM
- TGI [27]: > 100 µM
- TGI [28]: > 100 µM
- TGI [29]: > 100 µM
- TGI [30]: > 100 µM
- TGI [31]: > 100 µM
- TGI [32]: > 100 µM
- TGI [33]: > 100 µM
- TGI [34]: > 100 µM
- TGI [35]: > 100 µM
- TGI [36]: > 100 µM
- TGI [37]: > 100 µM
- TGI [38]: 89.9 µM
- TGI [39]: > 100 µM
- TGI [40]: > 100 µM
- TGI [41]: > 100 µM
- TGI [42]: > 100 µM
- TGI [43]: > 100 µM
- TGI [44]: > 100 µM
- TGI [45]: > 100 µM
- TGI [46]: > 100 µM
- TGI [47]: > 100 µM
- TGI [48]: > 100 µM
- TGI [49]: > 100 µM
- TGI [50]: > 100 µM
- TGI [51]: > 100 µM
- TGI [52]: > 100 µM
- TGI [53]: > 100 µM
- TGI [54]: > 100 µM
- TGI [55]: > 100 µM
- TGI [56]: > 100 µM
- TGI [57]: > 100 µM
- TGI [58]: > 100 µM
- TGI [59]: > 100 µM

SMILES: COc1cc(OC)c2c(c1)C(=O)C(CC1(C)OCCCO1)=CC2=O
- TGI [1]: 21.5 µM
- TGI [2]: 32.3 µM
- TGI [3]: 34.4 µM
- TGI [4]: 21.6 µM
- TGI [5]: 18.8 µM
- TGI [6]: 15.4 µM
- TGI [7]: 27.5 µM
- TGI [8]: 17.4 µM
- TGI [9]: 15.8 µM
- TGI [10]: 22.5 µM
- TGI [11]: 28.6 µM
- TGI [12]: 32.2 µM
- TGI [13]: 17.7 µM
- TGI [14]: 16.3 µM
- TGI [15]: 7.88 µM
- TGI [16]: 25.7 µM
- TGI [17]: 33.4 µM
- TGI [18]: 7.73 µM
- TGI [19]: 28.9 µM
- TGI [20]: 32.2 µM
- TGI [21]: > 69.7 µM
- TGI [22]: 28.5 µM
- TGI [23]: 27.7 µM
- TGI [24]: 12.8 µM
- TGI [25]: 18.7 µM
- TGI [26]: 26 µM
- TGI [27]: 13.9 µM
- TGI [28]: 20.5 µM
- TGI [29]: 30.6 µM
- TGI [30]: 36.3 µM
- TGI [31]: 27 µM
- TGI [32]: 34.7 µM
- TGI [33]: 10.6 µM
- TGI [34]: 21.4 µM
- TGI [35]: 19.7 µM
- TGI [36]: 30.6 µM
- TGI [37]: 22.5 µM
- TGI [38]: 23.3 µM
- TGI [39]: 10.4 µM
- TGI [40]: 44.5 µM
- TGI [41]: 26.9 µM
- TGI [42]: 27.8 µM
- TGI [43]: 25.6 µM
- TGI [44]: 30.1 µM
- TGI [45]: 23.8 µM
- TGI [46]: 20.9 µM
- TGI [47]: 34.2 µM
- TGI [48]: 27.2 µM
- TGI [49]: 32.4 µM
- TGI [50]: 25.3 µM
- TGI [51]: 26.6 µM
- TGI [52]: 7.2 µM
- TGI [53]: 20.3 µM
- TGI [54]: 25.1 µM
- TGI [55]: 31.6 µM
- TGI [56]: 25.9 µM
- TGI [57]: 16.2 µM
- TGI [58]: 24.1 µM
- TGI [59]: 18.4 µM
